Source: patent US4062862A, “5-Benzyl-2-oxazolidone derivatives and a process for producing the same” (Nippon Chemiphar Co., Ltd., priority 1975, dated 1977)

Key:
mice [1] = assay: Muscular relaxing effect, Traction Test (T.T), oral, mice; type: in vivo, dd Male mice; conditions: Mus musculus, oral, mice; for ED50: Table 1, maximum response 15-180 min, Litchfield Wilcoxon; for responders at 500 mg/kg: Table 2, read-out: Inhibition percent of the central muscular relaxing effect, T.T (Traction Test)
Experimental: (§1) dd Male mice weighing 18 to 22 g, one group consisting of 10 animals, were orally given the compounds (I) to (V) as indicated below suspended in 0.2% carboxymethylcellulose solution in a dose of 0.25ml/10g-body weight. Mephenesin was used as active placebo.

mice [2] = assay: Muscular relaxing effect, Righting Reflex Test (R.r), oral, mice; type: in vivo, dd Male mice; conditions: Mus musculus, oral, mice; for ED50: Table 1, maximum response 15-180 min, Litchfield Wilcoxon; for responders at 500 mg/kg: Table 2, read-out: Inhibition percent of the central muscular relaxing effect, R.r (Righting Reflex Test)
Experimental: as §1

mice [3] = assay: Muscular relaxing effect, Inclined Plane Test (I.P), oral, mice; type: in vivo, dd Male mice; conditions: Mus musculus, oral, mice; for ED50: Table 1, maximum response 15-180 min, Litchfield Wilcoxon; for responders at 500 mg/kg: Table 2, read-out: Inhibition percent of the central muscular relaxing effect, I.P (Inclined Plane Test)
Experimental: as §1
Mice were placed on veneer inclined at an angle of 30° and on wire-netting inclined at an angle of 60° of which one division is 5 mm square, and mice sliding down were observed as positive, in comparison with normal behavior.

mice [4] = assay: Muscular relaxing effect, Pinna Reflex Test (P.r), oral, mice; type: in vivo, dd Male mice; conditions: Mus musculus, oral, mice; for ED50: Table 1, maximum response 15-180 min, Litchfield Wilcoxon; for responders at 500 mg/kg: Table 2, read-out: Inhibition percent of the central muscular relaxing effect, P.r (Pinna Reflex Test)
Experimental: as §1
Pinna reflex was observed by using mandolin wire for 1/4 injection syringe.

[5] = test system: carrageenan-induced edema in rats; assay: Antiinflammatory effect on carrageenan-induced edema; type: in vivo, Wistar male rats; conditions: 200 mg/kg oral
Experimental: […] One hour after the administration of the test compounds, the hind paw was given a subcutaneous injection of 0.05ml of 0.5% carrageenan saline solution, and volume of the hind paw was measured at 1, 2, 3, 4, 5 and 6 hours after the injection of carrageenan by a volume differential meter. Inhibitory percent was calculated based on the swelling in the control. Phenybutazone was used as active placebo.

pain threshold in mice = assay: Analgetic effect, Pressure Test (pain threshold, tail pressure); type: in vivo, dd Male mice; conditions: 100 mg/kg oral; for Pain threshold, Mean ± SE, 30 min / Pain threshold, Mean ± SE, 60 min / Pain threshold, Mean ± SE, 90 min / Pain threshold, Mean ± SE, 120 min: *p <0.05, **p <0.01, ***p <0.001
Experimental: dd Male mice weighing 18 to 22 g (pain threshold ranging within 30 to 50 mmHg), one group consisting of 10 animals, were given orally the test compounds suspended in 0.2% carboxymethylcellulose solution in a dose of 100mg/kg-body weight. Pain threshold were measured at 30, 60, 90 and 120 minutes after the administration of the test compounds while pain reaction occurring by application of pressure on tails of animals was referred to as indication. Aminopyrine was used as active placebo.

[6] = test system: acetic acid-induced writhing syndrome in mice; assay: Analgetic effect, Acetic Acid-Induced Writhing Method; type: in vivo, dd Male mice; conditions: 100 mg/kg oral, 30 min before acetic acid; for Writhing syndrome (number within 20 minutes): control 52.1 ± 2.7; for Inhibitory per cent (writhing): vs control
Experimental: dd Male mice weighing 18 to 22g, one group consisting of 10 animals, were given the intraperitoneal injection of 0.6% acetic acid in a dose of 0.1ml/10g-body weight. The number of writhing syndromes occurring within 20 minutes after injection was observed. Animals were orally given the test compounds suspended in 0.2% carboxymethylcellulose solution 30 minutes before the injection of acetic acid in a dose of 100mg/kg-body weight. Inhibitory percent was estimated in comparison with a control given the 0.2% carboxymethycellulose solution only. Aminopyrine was used as active placebo.

mice [7] = assay: Muscular relaxing effect, Rotarod Method (R.R), oral, mice; type: in vivo, dd Male mice; conditions: Mus musculus, oral, mice; for ED50: Table 1, maximum response 15-180 min, Litchfield Wilcoxon; for responders at 500 mg/kg: Table 2, read-out: Inhibition percent of the central muscular relaxing effect, R.R (Rotarod Method)
Experimental: as §1
Mice were placed on Rotar Load (made by Natsume Seisakusho Co., Ltd.) having a diameter of 3 cm rotating at a speed of 10 rpm and falling (occurring within 3 minutes) was observed.

mice [8] = assay: Muscular relaxing effect, Corneal Reflex Test (C.r), oral, mice; type: in vivo, dd Male mice; conditions: Mus musculus, oral, mice; for ED50: Table 1, maximum response 15-180 min, Litchfield Wilcoxon; for responders at 500 mg/kg: Table 2, read-out: Inhibition percent of the central muscular relaxing effect, C.r (Corneal Reflex Test)
Experimental: as §1
Corneal reflex was observed by using mandolin wire for 1/4 injection syringe.

| Compound | ED50 (mice [1]) | ED50 (mice [2]) | ED50 (mice [3]) | ED50 (mice [4]) | Inhibitory per cent, carrageenan-induced edema, 3 hrs. ([5]; Table 5) | Inhibitory per cent, carrageenan-induced edema, 6 hrs. ([5]; Table 5) | Pain threshold Increase Ratio (pain threshold in mice) | Pain threshold, Mean ± SE, 30 min (pain threshold in mice) | Pain threshold, Mean ± SE, 60 min (pain threshold in mice) | Pain threshold, Mean ± SE, 90 min (pain threshold in mice) | Pain threshold, Mean ± SE, 120 min (pain threshold in mice) | Writhing syndrome (number within 20 minutes) [6] | Inhibitory per cent (writhing) [6] | ED50 (mice [7]) | ED50 (mice [8]) | further results |
| --- | --- | --- | --- | --- | --- | --- | --- | --- | --- | --- | --- | --- | --- | --- | --- | --- |
| O=C1NCC(Cc2ccc(Cl)cc2)O1 (stereo not shown) [Compound V, 5-(p-chlorobenzyl)-2-oxazolidone] | 380 mg/kg | 750 mg/kg | 520 mg/kg | 530 mg/kg | 30.6 per cent | 22.8 per cent | 1.15 | 54.6 ± 4.9 mmHg | 51.3 ± 4.3 mmHg | 48.8 ± 2.7 mmHg | 48.2 ± 1.7 mmHg | 45.5 ± 5.3 | 12.8 per cent | 240 mg/kg | 750 mg/kg |  |
| O=C1NCC(Cc2ccccc2Cl)O1 (stereo not shown) [IV, 5-(o-chlorobenzyl)-2-oxazolidone] | 390 mg/kg | 660 mg/kg | 330 mg/kg | < 500 mg/kg | 16.8 per cent | 15.9 per cent | 1.89 | 69.8 ± 4.5 mmHg | 56.7 ± 5.3 mmHg | 53.3 ± 5.5 mmHg | 51.8 ± 6.2 mmHg | 12.8 ± 3.6 | 75.4 per cent | 210 mg/kg | 560 mg/kg |  |
| COc1ccccc1CC1CNC(=O)O1 (stereo not shown) [III, 5-(o-methoxybenzyl)-2-oxazolidone] | 350 mg/kg | 500 mg/kg | 380 mg/kg | 380 mg/kg | 32.7 per cent | 23.3 per cent | 1.20 | 43.7 ± 4.9 mmHg | 46.5 ± 4.2 mmHg | 42.9 ± 3.1 mmHg | 39.2 ± 3.6 mmHg | 39.1 ± 6.4 | 24.9 per cent | 175 mg/kg | 500 mg/kg |  |
| CN1CC(Cc2ccccc2)OC1=O (stereo not shown) [II, 5-benzyl-3-methyl-2-oxazolidone] | 500 mg/kg | 810 mg/kg | 500 mg/kg | 520 mg/kg | 33.3 per cent | 19.7 per cent | 1.36 | 49.1 ± 4.5 mmHg | 49.2 ± 3.3 mmHg | 43.5 ± 4.7 mmHg | 36.3 ± 3.9 mmHg | 45.9 ± 4.8 | 11.9 per cent | 340 mg/kg | 1100 mg/kg |  |
| O=C1NCC(Cc2ccccc2)O1 (stereo not shown) [I, 5-benzyl-2-oxazolidone] | 660 mg/kg | 1100 mg/kg | 940 mg/kg | 800 mg/kg | 49.5 per cent | 13.0 per cent | 1.34 | 58.2 ± 3.2 mmHg | 57.8 ± 3.2 mmHg | 51.5 ± 2.8 mmHg | 50.7 ± 2.2 mmHg | 42.3 ± 5.9 | 18.9 per cent | 460 mg/kg |  |  |
| O=C1NCC(Cc2ccccc2C(F)(F)F)O1 (stereo not shown) [VIII, 5-(o-trifluoromethylbenzyl)-2-oxazolidone] |  |  |  |  |  |  | 1.28 | 62.0 ± 4.6 mmHg | 60.2 ± 3.0 mmHg | 57.5 ± 3.2 mmHg | 52.9 ± 2.0 mmHg |  |  |  |  | responders at 500 mg/kg (mice [1]): 40%; responders at 500 mg/kg (mice [2]): 10%; responders at 500 mg/kg (mice [3]): 40%; responders at 500 mg/kg (mice [4]): 10%; Inhibitory per cent, carrageenan-induced edema, 1 hr ([5]; Table 6, 1 hr): 21.7 per cent; Inhibitory per cent, carrageenan-induced edema, 2 hrs. ([5]; Table 6, 2 hrs.): 49.7 per cent; Inhibitory per cent, carrageenan-induced edema, 3 hrs. ([5]; Table 6): 27.4 per cent; Inhibitory per cent, carrageenan-induced edema, 4 hrs. ([5]; Table 6, 4 hrs.): 35.6 per cent; Inhibitory per cent, carrageenan-induced edema, 5 hrs. ([5]; Table 6, 5 hrs.): 9.2 per cent; Inhibitory per cent, carrageenan-induced edema, 6 hrs. ([5]; Table 6): 0.5 per cent; responders at 500 mg/kg (mice [7]): 90%; responders at 500 mg/kg (mice [8]): 0% |
| O=C1NCC(Cc2ccccc2Br)O1 (stereo not shown) [XII, 5-(o-bromobenzyl)-2-oxazolidone] |  |  |  |  |  |  | 1.24 | 59.6 ± 3.4 mmHg | 59.4 ± 3.7 mmHg | 57.5 ± 1.9 mmHg | 52.7 ± 2.1 mmHg |  |  |  |  | responders at 500 mg/kg (mice [1]): 60%; responders at 500 mg/kg (mice [2]): 0%; responders at 500 mg/kg (mice [3]): 80%; responders at 500 mg/kg (mice [4]): 20%; responders at 500 mg/kg (mice [7]): 100%; responders at 500 mg/kg (mice [8]): 0% |
| Cc1c(N(C)C)c(=O)n(-c2ccccc2)n1C [Aminopyrine, reference compound] |  |  |  |  |  |  | 2.20 | 75.7 ± 5.4 mmHg | 67.3 ± 5.4 mmHg | 70.8 ± 5.3 mmHg | 53.1 ± 4.5 mmHg | 19.3 ± 6.0 | 62.9 per cent |  |  |  |
